Experimental data reported in US20140249198A1, “MELATONIN AND ITS USE IN PREVENTING POSTOPERATIVE COMPLICATIONS” (NUTRI-FIT GMBH & CO., KG, priority 2004, published 2014).

Legend:
mice = conditions: short term administration after surgery-induced hemorrhagic shock, mice subjected to septic challenge; cited from earlier work
neutrophils = conditions: in vitro; apoptosis delayed following hepatectomy; cited from earlier work
[1] = system: rat middle cerebral artery occlusion model; conditions: pretreatment with melatonin; cited from earlier work
[2] = system: female Sprague Dawley rats; assay: Partial liver resection with ischemia/reperfusion in rats, preoperative melatonin by gavage; format: in vivo, rat
Description: Ischemia and subsequent reperfusion of organs and tissues induced by clamping of blood vessels to prevent excessive bleeding, are unavoidable during surgical procedures. Such a standard ischemia/reperfusion situation can be simulated by a partial hepatectomy in a clinically relevant rat surgical model.
In this animal model, female Sprague Dawley rats (200-220 g) undergo a median laparotomy followed by clamping of the right lateral liver lobe for 20 min resulting in a hypoxia in about 30% of the entire organ. After reperfusion of the ischemic tissue, the remaining 70% of the liver, the non-ischemic middle and left lateral liver lobes are surgically removed and the surgical incision is closed. During a follow up period of maximal 7 days the effects of ischemia/reperfusion are observed with respect to liver damage and survival.
In this rat model the operative trauma of performing a laparotomy introduces a first hypoxia in the liver. The subsequent partial clamping of the blood supply to the liver and the following partial resection of a large part of liver tissue results in additional ischemia. During the subsequent reperfusion the actual free radical-induced damage to the liver tissue occurs. This actual damage to many cells of the liver tissue in regions of the remaining parts of the organ is now determined by the release of enzymes such as liver transaminases, alkaline phosphatase after various time points following partial liver resection.
After reperfusion of the ischemic tissue, the remaining 70% of the liver, the non-ischemic middle and the left lateral liver lobes were surgically removed and the surgical incision was closed.
In this rat model the operative trauma of performing a laparotomy introduced a first hypoxia in the liver. […] During the subsequent reperfusion the actual free radical-induced damage to the liver tissue occurred. This actual damage to many cells of the liver tissue in regions of the remaining parts of the organ was now determined by the release of enzymes such as liver transaminases (AST, ALT) and alkaline phosphatase after various time points following partial liver resection.
Melatonin was administered in various concentrations (0, 10, 20, 50 mg/kg body weight) by gavage of a control (5% ethanol in water; 0 mg/kg body weight melatonin) or a melatonin-containing aqueous solution (5% ethanol) into the stomach of the 10 rats of each of the four groups 2 hours before the surgery.

neonates = conditions: treatment started within 3 hours after the end of surgery; cited from earlier work
[3] = 10, 20, 50 mg/kg body weight by gavage 2 hours before surgery, 3 and 8 h after partial liver resection, vs control, FIG. 1

COc1ccc2[nH]cc(CCNC(C)=O)c2c1 [Melatonin, N-acetyl-5-methoxytryptamin]
survival (mice): significantly improved survival | apoptosis activity in neutrophils (neutrophils): enhances apoptosis activity in neutrophils | volume of cerebral infarction [1]: reduce the volume of cerebral infarction | survival after 7 days ([2]; 10 mg/kg body weight preoperatively, vs control, FIG. 3): significant increase in survival | alkaline phosphatase (ALP) activity (indicates regeneration of the liver) ([2]; 50 mg/kg body weight preoperatively, 3, 8, 48 h and 1 week after partial liver resection, vs control, FIG. 2): increased ALP activity after 48 h reaching statistical significance after 1 week | level of alanine transferase (ALT) [2, 3]: amelioration of the massive increase | level of aspartate transferase (AST) [2, 3]: amelioration of the massive increase | hypoxia of liver tissue ([2]; preoperative application, partial liver resection in rats): reduces the increase in hypoxia of liver tissue | extent of necrosis following ischemia/reperfusion of the liver ([2]; preoperative application, rats): reduces the extent of necrosis | clinical parameters of inflammation (neonates): progressive reduction of clinical parameters of inflammation
